Key:
JAK = assay: Biochemical Kinase Assay Protocol (JAK); conditions: compound list; + = noted target activity, number of * = preference
Description: Biochemical Kinase Assay Protocol (JAK, TrkA, Syk, Tyk2)
Reagent: Base Reaction buffer; 20 mM Hepes (pH 7.5), 10 mM MgCl2, 1 mM EGTA, 0.02% Brij™ 35, 0.02 mg/ml BSA, 0.1 mM Na3VO4, 2 mM DTT, 1% DMSO, where required cofactors are added individually to each kinase reaction.
• 1. Prepare indicated substrate in freshly prepared Base Reaction Buffer • 2. Deliver any required cofactors to the substrate solution above • 3. Deliver indicated kinase (JAK or TrkA) into the substrate solution and gently mix • 4. Deliver compounds in DMSO into the kinase reaction mixture by Acoustic technology (Echo550; nanoliter range), incubate for 20 minutes at room temperature • 5. Deliver 33P-ATP into the reaction mixture to initiate the reaction. • 6. Incubate kinase reaction for 2 hours at room temperature • 7. Reactions are spotted onto P81 ion exchange paper • 8. Detect kinase activity by filter-binding method. PDE4B Phosphodiesterase Assay

Recombinant human PDE4B = target: T1, Recombinant human PDE4B (Homo sapiens, UniProt Q07343); assay: PDE4B Phosphodiesterase Assay; assay type: biochemical; set-up: key to Activity Note: PDE4: The (+) symbols identify a compound of the present disclosure with the noted target activity; +*: The (*) symbols indicate preferential activity, where the greater number identifies the most preferred compounds; +**: The (*) symbols indicate preferential activity, where the greater number identifies the most preferred compounds; +***: The (*) symbols indicate preferential activity, where the greater number identifies the most preferred compounds; conditions: compound list; + = noted target activity
T1 construct: aa 305-end; GST (N); made in house; host or cells: Sf9 insect cells (baculovirus)
T1 sequence (Q07343 305-736 limits assumed): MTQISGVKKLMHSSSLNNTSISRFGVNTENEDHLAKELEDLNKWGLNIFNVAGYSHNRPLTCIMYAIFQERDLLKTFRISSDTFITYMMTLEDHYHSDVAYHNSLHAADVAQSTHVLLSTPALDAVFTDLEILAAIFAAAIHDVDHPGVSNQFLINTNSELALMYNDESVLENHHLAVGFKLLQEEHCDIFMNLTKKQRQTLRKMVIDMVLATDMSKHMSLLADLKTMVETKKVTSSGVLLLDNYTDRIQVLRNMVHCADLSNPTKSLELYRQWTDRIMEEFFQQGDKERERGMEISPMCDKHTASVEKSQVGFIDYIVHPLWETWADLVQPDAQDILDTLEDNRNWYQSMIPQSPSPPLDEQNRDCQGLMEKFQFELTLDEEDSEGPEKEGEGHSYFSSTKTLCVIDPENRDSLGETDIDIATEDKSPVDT
Description: The assay is based on the fluorescence polarization measuring AMP/GMP production as a result of the enzyme activity by displacement of Tracer binding to the AMP/GMP antibody. • Reaction Buffer: 10 mM Tris-HCl, pH 7.5, 5 mM MgCl2, 0.01% Brij 35, 1 mM DTT and 1% DMSO. • Enzyme: Recombinant human PDE4B (Gene Accession #NM_002600; aa 305-end) was expressed by baculovirus in Sf9 insect cells using an N-terminal GST tag. Mw=78 kDa. • Substrate: 1 μM cAMP • Detection: Transcreener® AMP2/GMP2 Antibody AMP2/GMP2 AlexaFluor 633 Tracer Reaction Procedure: • 1. Prepared indicated enzyme and substrate in freshly prepared Reaction Buffer • 2. Delivered enzyme solution into the reaction well • 3. Delivered compounds in 100% DMSO into the enzyme solution by Acoustic technology (Echo550; nanoliter range), incubated for 10 min at room temperature • 4. Delivered substrate solution into the reaction well to initiate the reaction • 5. Incubated for 1 h at room temperature • 6. Added detection mixture (Tracer and antibody in the stop buffer) to stop the reaction and incubated for 90 min with gentle mixing. The fluorescence polarization was measured at Ex/Em 620/688.
Data Analysis: The FP signals were converted into nM product based on an AMP/GMP standard curve and calculated % Enzyme activity relative to DMSO control by Excel. The curve fit was performed using GraphPad prism.

SMILES | Activity Note: JAK (JAK) | Activity Note: PDE4 (Recombinant human PDE4B)
Cc1cnc(Nc2ccc3c(c2C)B(O)OC3)nc1Nc1cccc(S(C)(=O)=O)c1 [7-methyl-6-((5-methyl-4-((3-(methylsulfonyl)phenyl)amino)pyrimidin-2-yl)amino)benzo[c][1,2]oxaborol-1(3H)-ol] | JAK+* | 
Cc1cnc(Nc2ccc3c(c2)B(O)OC3)nc1NC1CCC(C)CC1 (centres unmarked) [6-((5-methyl-4-((4-methylcyclohexyl)amino)pyrimidin-2-yl)amino)benzo[c][1,2]oxaborol-1(3H)-ol] | JAK+** | 
CCC(CC)Nc1nc(Nc2cc(Cl)c3c(c2)COB3O)ncc1C [7-chloro-5-((5-methyl-4-(pentan-3-ylamino)pyrimidin-2-yl)amino)benzo[c][1,2]oxaborol-1(3H)-ol] | JAK+*** | 
Cc1cnc(Nc2cc(C)c3c(c2)COB3O)nc1NC1CCCC1 [5-((4-(cyclopentylamino)-5-methylpyrimidin-2-yl)amino)-7-methylbenzo[c][1,2]oxaborol-1(3H)-ol] | JAK+*** | 
Cc1cnc(Nc2cc(C)c3c(c2)CCOB3O)nc1NC1CCCC1 [6-((4-(cyclopentylamino)-5-methylpyrimidin-2-yl)amino)-8-methyl-3,4-dihydro-1H-benzo[c][1,2]oxaborinin-1-ol] | JAK+* | 
Cc1cc(Nc2ncc(Cl)c(NC3CCCC3)n2)cc2c1B(O)OC2 [5-((5-chloro-4-(cyclopentylamino)pyrimidin-2-yl)amino)-7-methylbenzo[c][1,2]oxaborol-1(3H)-ol] | JAK+*** | 
Cc1cnc(Nc2cc(C)c3c(c2)COB3O)nc1Nc1ccccc1 [7-methyl-5-((5-methyl-4-(phenylamino)pyrimidin-2-yl)amino)benzo[c][1,2]oxaborol-1(3H)-ol] | JAK+*** | 
Cc1cnc(Nc2ccc3c(c2)C(C)OB3O)nc1Nc1ccccc1 (centres unmarked) [3-methyl-5-((5-methyl-4-(phenylamino)pyrimidin-2-yl)amino)benzo[c][1,2]oxaborol-1(3H)-ol] | JAK+*** | 
CC1OB(O)c2ccc(Nc3ncc(Cl)c(NC4CCCC4)n3)cc21 (centres unmarked) [5-((5-chloro-4-(cyclopentylamino)pyrimidin-2-yl)amino)-3-methylbenzo[c][1,2]oxaborol-1(3H)-ol] | JAK+*** | 
Cc1cnc(Nc2cc3c(c(C(F)(F)F)c2)B(O)OC3)nc1Nc1ccccc1 [5-((5-methyl-4-(phenylamino)pyrimidin-2-yl)amino)-7-(trifluoromethyl)benzo[c][1,2]oxaborol-1(3H)-ol] | JAK+*** | 
CCc1cc(N(c2ncc(C)c(NC(CC)CC)n2)S(=O)(=O)C(F)(F)F)cc2c1B(O)OC2 [N-(7-ethyl-1-hydroxy-1,3-dihydrobenzo[c][1,2]oxaborol-5-yl)-1,1,1-trifluoro-N-(5-methyl-4-(pentan-3-ylamino)pyrimidin-2-yl)methanesulfonamide] | JAK+* | 
Cc1cnc(Nc2ccc3c(c2)B(O)OC3)nc1NC1CCCCC1 [6-((4-(cyclohexylamino)-5-methylpyrimidin-2-yl)amino)benzo[c][1,2]oxaborol-1(3H)-ol] | JAK+* | 
Cc1cnc(Nc2ccc3c(c2)B(O)OC3)nc1N[C@H]1CC[C@H](CO)CC1 [6-((4-(((1r,4r)-4-(hydroxymethyl)cyclohexyl)amino)-5-methylpyrimidin-2-yl)amino)benzo[c][1,2]oxaborol-1(3H)-ol] | JAK+* | 
Cc1cnc(Nc2ccc3c(c2)B(O)OC3)nc1Nc1cccc(S(C)(=O)=O)c1 [6-((5-methyl-4-((3-(methylsulfonyl)phenyl)amino)pyrimidin-2-yl)amino)benzo[c][1,2]oxaborol-1(3H)-ol] | JAK+* | 
COc1ccccc1Nc1nc(Nc2ccc3c(c2)COB3O)ncc1C [5-((4-((2-methoxyphenyl)amino)-5-methylpyrimidin-2-yl)amino)benzo[c][1,2]oxaborol-1(3H)-ol] |  | +
OB1OCc2cc(Nc3nccc(NC4CCCC4)n3)ccc21 [5-((4-(cyclopentylamino)pyrimidin-2-yl)amino)benzo[c][1,2]oxaborol-1(3H)-ol] |  | +
OB1OCc2cc(Nc3ncc(Cl)c(NC4CCCC4)n3)ccc21 [5-((5-chloro-4-(cyclopentylamino)pyrimidin-2-yl)amino)benzo[c][1,2]oxaborol-1(3H)-ol] |  | +

Other lines, results leading:

Activity Note: JAK (JAK) | Activity Note: PDE4 (Recombinant human PDE4B) | SMILES
JAK+*** |  | CCc1cc(Nc2ncc(Cl)c(NC3CCCC3)n2)cc2c1B(O)OC2 [5-((5-chloro-4-(cyclopentylamino)pyrimidin-2-yl)amino)-7-ethylbenzo[c][1,2]oxaborol-1(3H)-ol]
JAK+*** |  | CCC(CC)Nc1nc(Nc2cc3c(c(C(F)(F)F)c2)B(O)OC3)ncc1C [5-((5-methyl-4-(pentan-3-ylamino)pyrimidin-2-yl)amino)-7-(trifluoromethyl)benzo[c][1,2]oxaborol-1(3H)-ol]
JAK+*** |  | CCC(CC)Nc1nc(Nc2cc(Cl)c3c(c2)C(C)(C)OB3O)ncc1C [7-chloro-3,3-dimethyl-5-((5-methyl-4-(pentan-3-ylamino)pyrimidin-2-yl)amino)benzo[c][1,2]oxaborol-1(3H)-ol]
JAK+* |  | CCC(CC)Nc1nc(Nc2ccc3c(c2)B(O)OC3)ncc1C [6-((5-methyl-4-(pentan-3-ylamino)pyrimidin-2-yl)amino)benzo[c][1,2]oxaborol-1(3H)-ol]
JAK+*** |  | CC1(C)OB(O)c2ccc(Nc3ncc(Cl)c(NC4CCCC4)n3)cc21 [5-((5-chloro-4-(cyclopentylamino)pyrimidin-2-yl)amino)-3,3-dimethylbenzo[c][1,2]oxaborol-1(3H)-ol]
JAK+*** |  | CC1(C)OB(O)c2c(Cl)cc(Nc3ncc(Cl)c(NC4CCCC4)n3)cc21 [7-chloro-5-((5-chloro-4-(cyclopentylamino)pyrimidin-2-yl)amino)-3,3-dimethylbenzo[c][1,2]oxaborol-1(3H)-ol]
JAK+** |  | Cc1cnc(Nc2ccc3c(c2)B(O)OC3(C)C)nc1Nc1cccc(S(C)(=O)=O)c1 [3,3-dimethyl-6-((5-methyl-4-((3-(methylsulfonyl)phenyl)amino)pyrimidin-2-yl)amino)benzo[c][1,2]oxaborol-1(3H)-ol]
JAK+*** |  | CCC(CC)Nc1nc(Nc2cc(C)c3c(c2)C(C)OB3O)ncc1C (centres unmarked) [3,7-dimethyl-5-((5-methyl-4-(pentan-3-ylamino)pyrimidin-2-yl)amino)benzo[c][1,2]oxaborol-1(3H)-ol]
JAK+*** |  | Cc1cnc(Nc2ccc3c(c2)C(C)(C)OB3O)nc1Nc1ccccc1 [3,3-dimethyl-5-((5-methyl-4-(phenylamino)pyrimidin-2-yl)amino)benzo[c][1,2]oxaborol-1(3H)-ol]
JAK+*** |  | CCc1cc(Nc2ncc(C)c(NC(CC)CC)n2)cc2c1B(O)OC2 [7-ethyl-5-((5-methyl-4-(pentan-3-ylamino)pyrimidin-2-yl)amino)benzo[c][1,2]oxaborol-1(3H)-ol]
JAK+*** |  | Cc1cc(Nc2ncc(Cl)c(NC3CCCC3)n2)cc2c1B(O)OC2(C)C [5-((5-chloro-4-(cyclopentylamino)pyrimidin-2-yl)amino)-3,3,7-trimethylbenzo[c][1,2]oxaborol-1(3H)-ol]
JAK+*** |  | CCC(CC)Nc1nc(Nc2cc(C)c3c(c2)C(C)(C)OB3O)ncc1C [3,3,7-trimethyl-5-((5-methyl-4-(pentan-3-ylamino)pyrimidin-2-yl)amino)benzo[c][1,2]oxaborol-1(3H)-ol]
JAK+*** |  | Cc1cnc(Nc2cc(C)c3c(c2)C(C)(C)OB3O)nc1Nc1ccccc1 [3,3,7-trimethyl-5-((5-methyl-4-(phenylamino)pyrimidin-2-yl)amino)benzo[c][1,2]oxaborol-1(3H)-ol]
 | + | CCC(CC)Oc1nc(Nc2ccc3c(c2)COB3O)ncc1C [5-((5-methyl-4-(pentan-3-yloxy)pyrimidin-2-yl)amino)benzo[c][1,2]oxaborol-1(3H)-ol]
 | + | CCCC(CC)Nc1nc(Nc2ccc3c(c2)COB3O)ncc1C(F)(F)F (centres unmarked) [5-((4-(hexan-3-ylamino)-5-(trifluoromethyl)pyrimidin-2-yl)amino)benzo[c][1,2]oxaborol-1(3H)-ol]

From US12358932B2, “Chemical compounds” (BORAH, INC., priority 2019, dated 2025)
